Test results from PubChem BioAssay AID1963978 (Molecular Pharmacology Branch, DTP, NCI, 2024).

Test system: 616215-338-R-J1-PDC spheroids with HUVEC/MSC, viability
Assay: Anticancer human tumor 616215-338-R-J1-PDC patient-derived colon adenocarcinoma cell line growth inhibition [PI3K]
Conditions: for IC50: curve of first compound; for viability, T/C: stronger effect = lower value
Text: Combinatorial screen of targeted agents with the PI3K inhibitors inavolisib, alpelisib, duvelisib, and copanlisib in multi-cell type tumor spheroids
A high-throughput screen of multi-cell type tumor spheroids was designed to identify active combinations of targeted small molecules and PI3K pathway inhibitors. Complex spheroids include a stromal component modeled by human endothelial cells (HUVEC) and fibroblasts modeled by human mesenchymal stem cells (MSCs). The concentration ranges selected for each drug and investigational agent were based upon clinically achievable concentrations if the clinical Cmax of the agent was known.
Compounds. The drugs and investigational agents: inavolisib (NSC800729), alpelisib (NSC765974), duvelisib (NSC772469), copanlisib (NSC816437), ipatasertib (NSC767898), afuresertib (NSC778305), talazoparib (NSC767125), sapanisertib (NSC764658), selumetinib (NSC741078), tovorafenib (DAY101, NSC766906), vemurafenib (NSC761431), ravoxertinib (NSC781343), sotorasib (NSC818433), MRTX1133 (NSC 836407), abemaciclib (NSC 768073), palbociclib (NSC758247), venetoclax (NSC 766270), SY5609 (NSC837396), enzalutamide (NSC755605), and darolutamide (NSC825331), were obtained from the National Cancer Institute (NCI) Developmental Therapeutics Program Chemical Repository. The FDA-approved anticancer drug set is available from the NCI Developmental Therapeutics Program. […] The stock solutions were prepared in dimethyl sulfoxide (DMSO, Sigma-Aldrich, St. Louis, MO, cat. D2650) at 800-fold the tested concentration and stored at -70 degrees C prior to their use. All drugs and investigational agents were tested over a range starting from a high concentration at or near the clinical Cmax and decreasing in half-log increments. If the clinical Cmax for an agent had not been determined, the highest concentration tested was 10 microM.
Cell Culture. All cells were maintained in an incubator at 37 degrees C and 5% CO2 with 95% humidity. The PDC lines were cultured according to standard operating procedures established by the NCI PDMR (https://pdmr.cancer.gov/sops/default.htm). All PDCs were thawed and cultured in Matrigel-coated flasks prepared with a working solution of 1X Ham's F-12 nutrient mix, without supplementation (Invitrogen, Waltham, MA, cat. 11765054), 100 U/mL penicillin-streptomycin (Invitrogen, cat. 15140122), and 2.5% Matrigel (Corning Inc., Corning, NY, cat. 354248) for the first three passages. The 354836-022-R-J1-PDC, 475296-252-R-J1-PDC, and 997726-040-R-J2-PDC lines were cultured in 6A media, which includes advanced DMEM/F-12 (Thermo Fisher Scientific, cat. 12634028), 10 mM HEPES (Thermo Fisher Scientific, cat. 15630080), 1X GlutaMAX supplement (Thermo Fisher Scientific, cat. 35050061), 0.1 mg/mL primocin (InvivoGen, San Diego, CA, cat. ant-pm-2), 10% defined fetal bovine serum, heat inactivated (HyClone Laboratories Inc., Logan, UT, cat. SH30070.03HI), 50% L-WRN conditioned media (ATCC, cat. CRL-3276), 1.25 mM N-Acetyl-L-cysteine (Sigma-Aldrich, cat. A9165), 10 mM nicotinamide (Sigma-Aldrich, cat. N0636), 1X B-27 supplement (Thermo Fisher Scientific, cat. 17504044), 1X N-2 supplement (Thermo Fisher Scientific, cat. 17502048), and 10 microM Y-27632 dihydrochloride (Tocris Bioscience, Bristol, United Kingdom, cat. 1254). The 624824-186-R-J2-PDC line was cultured in 6C/Colon 1B media, which includes all 6A media components plus 50 ng/mL human EGF recombinant protein (Thermo Fisher Scientific, cat. PHG0311). […]

[1] = second compound 0.00316 µM, first compound 0.0316 µM
[2] = second compound 0.00316 µM, first compound 0.1 µM
[3] = second compound 0.00316 µM, first compound 0.316 µM
[4] = second compound 0.00316 µM, first compound 1 µM
[5] = second compound 0.00316 µM, first compound 3.16 µM
[6] = second compound 0.00316 µM, first compound 10 µM
[7] = second compound 0.01 µM, first compound 0.0316 µM
[8] = second compound 0.01 µM, first compound 0.1 µM
[9] = second compound 0.01 µM, first compound 0.316 µM
[10] = second compound 0.01 µM, first compound 1 µM
[11] = second compound 0.01 µM, first compound 3.16 µM
[12] = second compound 0.01 µM, first compound 10 µM
[13] = second compound 0.0316 µM, first compound 0.0316 µM
[14] = second compound 0.0316 µM, first compound 0.1 µM
[15] = second compound 0.0316 µM, first compound 0.316 µM
[16] = second compound 0.0316 µM, first compound 1 µM
[17] = second compound 0.0316 µM, first compound 3.16 µM
[18] = second compound 0.0316 µM, first compound 10 µM
[19] = second compound 0.1 µM, first compound 0.0316 µM
[20] = second compound 0.1 µM, first compound 0.1 µM
[21] = second compound 0.1 µM, first compound 0.316 µM
[22] = second compound 0.1 µM, first compound 1 µM
[23] = second compound 0.1 µM, first compound 3.16 µM
[24] = second compound 0.1 µM, first compound 10 µM
[25] = second compound 0.316 µM, first compound 0.0316 µM
[26] = second compound 0.316 µM, first compound 0.1 µM
[27] = second compound 0.316 µM, first compound 0.316 µM
[28] = second compound 0.316 µM, first compound 1 µM
[29] = second compound 0.316 µM, first compound 3.16 µM
[30] = second compound 0.316 µM, first compound 10 µM
[31] = second compound 1 µM, first compound 0.0316 µM
[32] = second compound 1 µM, first compound 0.1 µM
[33] = second compound 1 µM, first compound 0.316 µM
[34] = second compound 1 µM, first compound 1 µM
[35] = second compound 1 µM, first compound 3.16 µM
[36] = second compound 1 µM, first compound 10 µM
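Also: spheroids exposed to agents for seven days before the viability read.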

Work on `Cn1nccc1Nc1nccc(-c2ccn(C(CO)c3ccc(Cl)c(F)c3)c(=O)c2)n1` (stereo unspecified) + COc1c(OCCCN2CCOCC2)ccc2c3n(c(=NC(=O)c4cnc(N)nc4)nc12)CCN3 yielded an IC50 (second compound 0.00316 µM) of 3280 nM, an IC50 (second compound 0.01 µM) of 1110 nM and an IC50 (second compound 0.0316 µM) of 659 nM. The IC50 (second compound 0.1 µM) was 412 nM, the IC50 (second compound 0.316 µM) was < 31.6 nM and the IC50 (second compound 1 µM) was < 31.6 nM. For the same compound, the viability, T/C [1] was 99.7%, the viability, T/C [2] was 94.4% and the viability, T/C [3] was 76.8%. The viability, T/C [4] was 67.7%, the viability, T/C [5] was 48.5% and the viability, T/C [6] was 40.7%. The viability, T/C [7] was 96.7%, the viability, T/C [8] was 102% and the viability, T/C [9] was 81.2%. It also gave a viability, T/C [10] of 49.8%, a viability, T/C [11] of 42.4% and a viability, T/C [12] of 28.8%. It also gave a viability, T/C [13] of 94.1%, a viability, T/C [14] of 92.8% and a viability, T/C [15] of 59.6%. It also gave a viability, T/C [16] of 42.2%, a viability, T/C [17] of 25.6% and a viability, T/C [18] of 10.7%. For the same compound, the viability, T/C [19] was 92.4%, the viability, T/C [20] was 83.8% and the viability, T/C [21] was 46.6%. The viability, T/C [22] was 37.5%, the viability, T/C [23] was 13.9% and the viability, T/C [24] was 0.2%. For the same compound, the viability, T/C [25] was 38%, the viability, T/C [26] was 38.6% and the viability, T/C [27] was 22.6%. For the same compound, the viability, T/C [28] was 13.2%, the viability, T/C [29] was 1.77% and the viability, T/C [30] was 0.14%. The viability, T/C [31] was 19.6%, the viability, T/C [32] was 11.4% and the viability, T/C [33] was 4.09%. For the same compound, the viability, T/C [34] was 0.93%, the viability, T/C [35] was 0.9% and the viability, T/C [36] was 0.16%.

In the case of `CC1(C)CCC(CN2CCN(c3ccc(C(=O)NS(=O)(=O)c4ccc(NCC5CCOCC5)c([N+](=O)[O-])c4)c(Oc4cnc5[nH]ccc5c4)c3)CC2)=C(c2ccc(Cl)cc2)C1` + COc1c(OCCCN2CCOCC2)ccc2c3n(c(=NC(=O)c4cnc(N)nc4)nc12)CCN3, the IC50 (second compound 0.00316 µM) is reported as > 10000 nM, the IC50 (second compound 0.01 µM) is reported as > 10000 nM and the IC50 (second compound 0.0316 µM) is reported as > 10000 nM. For the same compound, the IC50 (second compound 0.1 µM) was > 10000 nM, the IC50 (second compound 0.316 µM) was < 31.6 nM and the IC50 (second compound 1 µM) was < 31.6 nM. It also gave a viability, T/C [1] of 94%, a viability, T/C [2] of 103% and a viability, T/C [3] of 109%. The viability, T/C [4] was 99.7%, the viability, T/C [5] was 88.7% and the viability, T/C [6] was 95.2%. The viability, T/C [7] was 84.7%, the viability, T/C [8] was 95.1% and the viability, T/C [9] was 98.2%. The viability, T/C [10] was 98.7%, the viability, T/C [11] was 84.2% and the viability, T/C [12] was 96.8%. It also gave a viability, T/C [13] of 96.8%, a viability, T/C [14] of 99.4% and a viability, T/C [15] of 100%. The viability, T/C [16] was 102%, the viability, T/C [17] was 93.1% and the viability, T/C [18] was 109%. For the same compound, the viability, T/C [19] was 96.1%, the viability, T/C [20] was 93.6% and the viability, T/C [21] was 107%. It also gave a viability, T/C [22] of 87.8%, a viability, T/C [23] of 83% and a viability, T/C [24] of 95.2%. For the same compound, the viability, T/C [25] was 47.4%, the viability, T/C [26] was 41.2% and the viability, T/C [27] was 45.5%. It also gave a viability, T/C [28] of 42.5%, a viability, T/C [29] of 27.6% and a viability, T/C [30] of 33.2%. It also gave a viability, T/C [31] of 24.3%, a viability, T/C [32] of 24.4% and a viability, T/C [33] of 25.5%. For the same compound, the viability, T/C [34] was 21%, the viability, T/C [35] was 13.2% and the viability, T/C [36] was 30%.

`CC(C)n1nc(-c2ccc3oc(N)nc3c2)c2c(N)ncnc21` + Cc1nc(NC(=O)N2CCCC2C(N)=O)sc1-c1ccnc(C(C)(C)C(F)(F)F)c1 was tested, and the IC50 (second compound 0.0316 µM) was > 100 nM, the IC50 (second compound 0.1 µM) was > 100 nM and the IC50 (second compound 0.316 µM) was > 100 nM. The IC50 (second compound 1 µM) was > 100 nM, the IC50 (second compound 3.16 µM) was > 100 nM and the IC50 (second compound 10 µM) was 53.2 nM. It also gave a viability, T/C (second compound 0.0316 µM, first compound 0.000316 µM) of 100%, a viability, T/C (second compound 0.0316 µM, first compound 0.001 µM) of 88.7% and a viability, T/C (second compound 0.0316 µM, first compound 0.00316 µM) of 93.9%. The viability, T/C (second compound 0.0316 µM, first compound 0.01 µM) was 97.2%, the viability, T/C [13] was 105% and the viability, T/C [14] was 93.2%. The viability, T/C (second compound 0.1 µM, first compound 0.000316 µM) was 98.5%, the viability, T/C (second compound 0.1 µM, first compound 0.001 µM) was 106% and the viability, T/C (second compound 0.1 µM, first compound 0.00316 µM) was 96.8%. The viability, T/C (second compound 0.1 µM, first compound 0.01 µM) was 90.8%, the viability, T/C [19] was 114% and the viability, T/C [20] was 87.1%. For the same compound, the viability, T/C (second compound 0.316 µM, first compound 0.000316 µM) was 91.2%, the viability, T/C (second compound 0.316 µM, first compound 0.001 µM) was 91.2% and the viability, T/C (second compound 0.316 µM, first compound 0.00316 µM) was 91.4%. It also gave a viability, T/C (second compound 0.316 µM, first compound 0.01 µM) of 96.2%, a viability, T/C [25] of 111% and a viability, T/C [26] of 82.1%. It also gave a viability, T/C (second compound 1 µM, first compound 0.000316 µM) of 102%, a viability, T/C (second compound 1 µM, first compound 0.001 µM) of 100% and a viability, T/C (second compound 1 µM, first compound 0.00316 µM) of 102%. The viability, T/C (second compound 1 µM, first compound 0.01 µM) was 99.5%, the viability, T/C [31] was 106% and the viability, T/C [32] was 79.1%. It also gave a viability, T/C (second compound 3.16 µM, first compound 0.000316 µM) of 99.7%, a viability, T/C (second compound 3.16 µM, first compound 0.001 µM) of 102% and a viability, T/C (second compound 3.16 µM, first compound 0.00316 µM) of 91%. For the same compound, the viability, T/C (second compound 3.16 µM, first compound 0.01 µM) was 95.4%, the viability, T/C (second compound 3.16 µM, first compound 0.0316 µM) was 83.8% and the viability, T/C (second compound 3.16 µM, first compound 0.1 µM) was 56.7%. For the same compound, the viability, T/C (second compound 10 µM, first compound 0.000316 µM) was 94.4%, the viability, T/C (second compound 10 µM, first compound 0.001 µM) was 85.9% and the viability, T/C (second compound 10 µM, first compound 0.00316 µM) was 86.2%. For the same compound, the viability, T/C (second compound 10 µM, first compound 0.01 µM) was 80.2%, the viability, T/C (second compound 10 µM, first compound 0.0316 µM) was 56.7% and the viability, T/C (second compound 10 µM, first compound 0.1 µM) was 41.4%.
